{
  "source": "patent US12559492B2",
  "about": "“BRAF degraders” (C4 Therapeutics, Inc., priority 2020, dated 2026)",
  "target": "BRAF^V600E protein (Homo sapiens, UniProt P15056, V600E)",
  "sequence (P15056 whole entry V600E)": "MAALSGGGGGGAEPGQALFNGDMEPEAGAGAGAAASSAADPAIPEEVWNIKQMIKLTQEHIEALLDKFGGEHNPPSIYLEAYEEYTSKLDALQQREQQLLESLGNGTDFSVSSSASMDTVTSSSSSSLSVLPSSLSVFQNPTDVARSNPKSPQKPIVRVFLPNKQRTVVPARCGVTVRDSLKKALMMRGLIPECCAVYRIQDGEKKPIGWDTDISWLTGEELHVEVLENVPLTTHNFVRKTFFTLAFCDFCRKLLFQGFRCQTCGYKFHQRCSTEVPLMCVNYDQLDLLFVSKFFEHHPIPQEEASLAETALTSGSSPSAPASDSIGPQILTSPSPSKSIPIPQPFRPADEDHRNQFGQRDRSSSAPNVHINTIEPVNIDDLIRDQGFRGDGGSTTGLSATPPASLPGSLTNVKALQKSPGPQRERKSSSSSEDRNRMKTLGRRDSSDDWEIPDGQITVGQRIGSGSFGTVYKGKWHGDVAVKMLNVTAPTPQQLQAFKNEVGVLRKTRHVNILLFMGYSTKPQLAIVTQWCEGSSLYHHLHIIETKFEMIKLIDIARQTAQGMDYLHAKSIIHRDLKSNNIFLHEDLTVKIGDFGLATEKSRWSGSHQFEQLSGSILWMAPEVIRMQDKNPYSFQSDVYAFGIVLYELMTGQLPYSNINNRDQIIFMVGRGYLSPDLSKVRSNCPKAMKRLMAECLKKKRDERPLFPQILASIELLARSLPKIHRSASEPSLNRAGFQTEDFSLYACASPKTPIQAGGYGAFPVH",
  "experiment": "HiBiT cellular BRAF V600E degradation assay",
  "type": "cell-based",
  "details": "24 h incubation; for DC50: A375.10 cells (HiBiT tag knocked in at N-terminal of BRAF V600E), concentration at which 50% of total cellular BRAF V600E is degraded; for Emax: read-out: HiBit 24 h Emax",
  "key": {"[1]": {"details": "A375.10 cells, Emax = amount of residual protein remaining in the cell after compound treatment"}},
  "data": [
    {"smiles": "CCN(C)S(=O)(=O)Nc1ccc(F)c(C(=O)c2c[nH]c3ncc(-c4cnc(N5CCN(C(=O)CN6CCC(c7c(F)cc(NC8CCC(=O)NC8=O)cc7F)CC6)CC5)nc4)cc23)c1F", "note": "(centres unmarked) [Example 46, 5-[2-[4-[2-[4-[4-[(2,6-dioxo-3-piperidyl)amino]-2,6-difluoro-phenyl]-1-piperidyl]acetyl]piperazin-1-yl]pyrimidin-5-yl]-3-[3-[[ethyl(methyl)sulfamoyl]amino]-2,6-difluoro-benzoyl]-1H-pyrrolo[2,3-b]pyridine]", "values": [
      {"measurement": "DC50", "value": 9.1, "unit": "nM"},
      {"measurement": "Emax", "setting": "[1]", "value": 7.88, "unit": "%"}
    ]},
    {"smiles": "CCN(C)S(=O)(=O)Nc1ccc(F)c(C(=O)c2c[nH]c3ncc(-c4cnc(N5CCN(C(=O)CC6CCN(c7ccc8c(C9CCC(=O)NC9=O)nn(C)c8c7)CC6)CC5)nc4)cc23)c1F", "note": "(centres unmarked) [Example 47, 3-(2,6-dioxo-3-piperidyl)-6-[4-[2-[4-[5-[3-[3-[[ethyl(methyl)sulfamoyl]amino]-2,6-difluoro-benzoyl]-1H-pyrrolo[2,3-b]pyridin-5-yl]pyrimidin-2-yl]piperazin-1-yl]-2-oxo-ethyl]-1-piperidyl]-1-methyl-indazole]", "values": [
      {"measurement": "DC50", "value": 5.38, "unit": "nM"},
      {"measurement": "Emax", "setting": "[1]", "value": 19.3, "unit": "%"}
    ]},
    {"smiles": "CCN(C)S(=O)(=O)Nc1ccc(F)c(C(=O)c2c[nH]c3ncc(-c4cnc(N5CCN(C(=O)CC6CCN(c7ccc(NC8CCC(=O)NC8=O)cc7F)C6)CC5)nc4)cc23)c1F", "note": "(centres unmarked) [Example 48, 5-[2-[4-[2-[1-[4-[(2,6-dioxo-3-piperidyl)amino]-2-fluoro-phenyl]pyrrolidin-3-yl]acetyl]piperazin-1-yl]pyrimidin-5-yl]-3-[3-[[ethyl(methyl)sulfamoyl]amino]-2,6-difluoro-benzoyl]-1H-pyrrolo[2,3-b]pyridine]", "values": [
      {"measurement": "DC50", "value": 23, "unit": "nM"},
      {"measurement": "Emax", "setting": "[1]", "value": 15, "unit": "%"}
    ]},
    {"smiles": "CCN(C)S(=O)(=O)Nc1ccc(F)c(C(=O)c2c[nH]c3ncc(-c4cnc(N5CCN(C(=O)CN6CC7(C6)CN(c6ccc(NC8CCC(=O)NC8=O)cc6)C7)CC5)nc4)cc23)c1F", "note": "(centres unmarked) [Example 49, 5-[2-[4-[2-[2-[4-[(2,6-dioxo-3-piperidyl)amino]phenyl]-2,6-diazaspiro[3.3]heptan-6-yl]acetyl]piperazin-1-yl]pyrimidin-5-yl]-3-[3-[[ethyl(methyl)sulfamoyl]amino]-2,6-difluoro-benzoyl]-1H-pyrrolo[2,3-b]pyridine]", "values": [
      {"measurement": "DC50", "value": 24.9, "unit": "nM"},
      {"measurement": "Emax", "setting": "[1]", "value": 17.5, "unit": "%"}
    ]},
    {"smiles": "CCN(C)S(=O)(=O)Nc1ccc(F)c(C(=O)c2c[nH]c3ncc(-c4cnc(N5CCN(C(=O)Cc6ccc(N7CCN(C8CCC(=O)NC8=O)C(=O)C7)cc6)CC5)nc4)cc23)c1F", "note": "(centres unmarked) [Example 50, 5-[2-[4-[2-[4-[4-(2,6-dioxo-3-piperidyl)-3-oxo-piperazin-1-yl]phenyl]acetyl]piperazin-1-yl]pyrimidin-5-yl]-3-[3-[[ethyl(methyl)sulfamoyl]amino]-2,6-difluoro-benzoyl]-1H-pyrrolo[2,3-b]pyridine]", "values": [
      {"measurement": "DC50", "value": 4.57, "unit": "nM"},
      {"measurement": "Emax", "setting": "[1]", "value": 7.42, "unit": "%"}
    ]},
    {"smiles": "CCN(C)S(=O)(=O)Nc1ccc(F)c(C(=O)c2c[nH]c3ncc(-c4cnc(N5CCN(C(=O)CC6(O)CCN(c7ccc(NC8CCC(=O)NC8=O)cc7F)C6)CC5)nc4)cc23)c1F", "note": "(centres unmarked) [Example 51, 5-[2-[4-[2-[1-[4-[(2,6-dioxo-3-piperidyl)amino]-2-fluoro-phenyl]-3-hydroxy-pyrrolidin-3-yl]acetyl]piperazin-1-yl]pyrimidin-5-yl]-3-[3-[[ethyl(methyl)sulfamoyl]amino]-2,6-difluoro-benzoyl]-1H-pyrrolo[2,3-b]pyridine]", "values": [
      {"measurement": "DC50", "value": 5.51, "unit": "nM"},
      {"measurement": "Emax", "setting": "[1]", "value": 6.09, "unit": "%"}
    ]},
    {"smiles": "CCN(C)S(=O)(=O)Nc1ccc(F)c(C(=O)c2c[nH]c3ncc(-c4cnc(N5CCN(C(=O)CN6CC[C@@H](c7ccc(NC8CCC(=O)NC8=O)cc7)C(F)(F)C6)CC5)nc4)cc23)c1F", "note": "(stereo partly drawn) [Example 54, 5-[2-[4-[2-[(4S)-4-[4-[(2,6-dioxo-3-piperidyl)amino]phenyl]-3,3-difluoro-1-piperidyl]acetyl]piperazin-1-yl]pyrimidin-5-yl]-3-[3-[[ethyl(methyl)sulfamoyl]amino]-2,6-difluoro-benzoyl]-1H-pyrrolo[2,3-b]pyridine]", "values": [
      {"measurement": "DC50", "value": 4.72, "unit": "nM"},
      {"measurement": "Emax", "setting": "[1]", "value": 6.94, "unit": "%"}
    ]},
    {"smiles": "CCN(C)S(=O)(=O)Nc1ccc(F)c(C(=O)c2c[nH]c3ncc(-c4cnc(N5CCN(C(=O)CN6CC[C@H](c7ccc(NC8CCC(=O)NC8=O)cc7)C(F)(F)C6)CC5)nc4)cc23)c1F", "note": "(stereo partly drawn) [Example 55, 5-[2-[4-[2-[(4R)-4-[4-[(2,6-dioxo-3-piperidyl)amino]phenyl]-3,3-difluoro-1-piperidyl]acetyl]piperazin-1-yl]pyrimidin-5-yl]-3-[3-[[ethyl(methyl)sulfamoyl]amino]-2,6-difluoro-benzoyl]-1H-pyrrolo[2,3-b]pyridine]", "values": [
      {"measurement": "DC50", "value": 4.61, "unit": "nM"},
      {"measurement": "HiBit 24 h Emax", "setting": "[1]", "value": 6.57, "unit": "%"}
    ]},
    {"smiles": "CCN(C)S(=O)(=O)Nc1ccc(F)c(C(=O)c2c[nH]c3ncc(-c4cnc(N5CCN(C(=O)CC6CCN(c7ccc8c(N9CCC(=O)NC9=O)nn(C)c8c7)CC6)CC5)nc4)cc23)c1F", "note": "[Example 56, 3-(2,4-dioxohexahydropyrimidin-1-yl)-6-[4-[2-[4-[5-[3-[3-[[ethyl(methyl)sulfamoyl]amino]-2,6-difluoro-benzoyl]-1H-pyrrolo[2,3-b]pyridin-5-yl]pyrimidin-2-yl]piperazin-1-yl]-2-oxo-ethyl]-1-piperidyl]-1-methyl-indazole]", "values": [
      {"measurement": "DC50", "value": 5.12, "unit": "nM"},
      {"measurement": "Emax", "setting": "[1]", "value": 14.3, "unit": "%"}
    ]},
    {"smiles": "CCN(C)S(=O)(=O)Nc1ccc(F)c(C(=O)c2c[nH]c3ncc(-c4cnc(N5CCN(C(=O)CC6(O)CCN(c7ccc(NC8CCC(=O)NC8=O)cn7)CC6)CC5)nc4)cc23)c1F", "note": "(centres unmarked) [Example 57, 5-[2-[4-[2-[1-[5-[(2,6-dioxo-3-piperidyl)amino]-2-pyridyl]-4-hydroxy-4-piperidyl]acetyl]piperazin-1-yl]pyrimidin-5-yl]-3-[3-[[ethyl(methyl)sulfamoyl]amino]-2,6-difluoro-benzoyl]-1H-pyrrolo[2,3-b]pyridine]", "values": [
      {"measurement": "DC50", "value": 10.1, "unit": "nM"},
      {"measurement": "Emax", "setting": "[1]", "value": 18.2, "unit": "%"}
    ]},
    {"smiles": "CCN(C)S(=O)(=O)Nc1ccc(F)c(C(=O)c2c[nH]c3ncc(-c4cnc(N5CCN(C(=O)CC6(O)CCN(c7ncc(NC8CCC(=O)NC8=O)cc7F)CC6)CC5)nc4)cc23)c1F", "note": "(centres unmarked) [Example 58, 5-[2-[4-[2-[1-[5-[(2,6-dioxo-3-piperidyl)amino]-3-fluoro-2-pyridyl]-4-hydroxy-4-piperidyl]acetyl]piperazin-1-yl]pyrimidin-5-yl]-3-[3-[[ethyl(methyl)sulfamoyl]amino]-2,6-difluoro-benzoyl]-1H-pyrrolo[2,3-b]pyridine]", "values": [
      {"measurement": "DC50", "value": 4.25, "unit": "nM"},
      {"measurement": "Emax", "setting": "[1]", "value": 9.42, "unit": "%"}
    ]},
    {"smiles": "CCN(C)S(=O)(=O)Nc1ccc(F)c(C(=O)c2c[nH]c3ncc(-c4cnc(N5CCN(C(=O)CC6(O)CCN(c7ccc(NC8CCC(=O)NC8=O)cc7F)CC6)CC5)nc4)cc23)c1F", "note": "(centres unmarked) [Example 59, 5-[2-[4-[2-[1-[4-[(2,6-dioxo-3-piperidyl)amino]-2-fluoro-phenyl]-4-hydroxy-4-piperidyl]acetyl]piperazin-1-yl]pyrimidin-5-yl]-3-[3-[[ethyl(methyl)sulfamoyl]amino]-2,6-difluoro-benzoyl]-1H-pyrrolo[2,3-b]pyridine]", "values": [
      {"measurement": "DC50", "value": 2.41, "unit": "nM"},
      {"measurement": "Emax", "setting": "[1]", "value": 8.84, "unit": "%"}
    ]},
    {"smiles": "CCN(C)S(=O)(=O)Nc1ccc(F)c(C(=O)c2c[nH]c3ncc(-c4cnc(N5CCN(C(=O)CN6CCC(c7ccc8c(N9CCC(=O)NC9=O)nn(C)c8c7)C(F)(F)C6)CC5)nc4)cc23)c1F", "note": "(centres unmarked) [Example 61, 3-(2,4-dioxohexahydropyrimidin-1-yl)-6-[1-[2-[4-[5-[3-[3-[[ethyl(methyl)sulfamoyl]amino]-2,6-difluoro-benzoyl]-1H-pyrrolo[2,3-b]pyridin-5-yl]pyrimidin-2-yl]piperazin-1-yl]-2-oxo-ethyl]-3,3-difluoro-4-piperidyl]-1-methyl-indazole]", "values": [
      {"measurement": "DC50", "value": 3.75, "unit": "nM"},
      {"measurement": "Emax", "setting": "[1]", "value": 7.83, "unit": "%"}
    ]}
  ]
}
